≈ marks a conversion by molar mass, not a printed value.
System: Streptococcus pneumoniae
Assay: Antibacterial activity against Streptococcus pneumoniae by NCCLS method
Format: functional

Compound | MIC [µg/mL]
CC[C@H]1OC(=O)[C@H](C)[C@@H](OC(=O)Cc2cccc(F)c2)[C@H](C)[C@@H](O[C@@H]2O[C@H](C)C[C@H](N(C)C3CC3)[C@H]2O)[C@](C)(OC)C[C@@H](C)C(=O)[C@H](C)[C@@H](O)[C@]1(C)O | > 16
C#CCN(C)[C@H]1C[C@@H](C)O[C@@H](O[C@@H]2[C@@H](C)[C@H](OC(=O)Cc3cccnc3)[C@@H](C)C(=O)O[C@H](CC)[C@@](C)(O)[C@H](O)[C@@H](C)C(=O)[C@H](C)C[C@@]2(C)OC)[C@@H]1O | 2 (≈ 2.73 µM)
CC[C@H]1OC(=O)[C@H](C)[C@@H](OC(=O)Cc2ccncc2)[C@H](C)[C@@H](O[C@@H]2O[C@H](C)C[C@H](N(C)CC3CC3)[C@H]2O)[C@](C)(OC)C[C@@H](C)C(=O)[C@H](C)[C@@H](O)[C@]1(C)O | 32 (≈ 42.7 µM)
CC[C@H]1OC(=O)[C@H](C)[C@@H](OC(=O)Cc2cccc(F)c2)[C@H](C)[C@@H](O[C@@H]2O[C@H](C)C[C@H](N(C)Cc3ccc(F)cc3)[C@H]2O)[C@](C)(OC)C[C@@H](C)C(=O)[C@H](C)[C@@H](O)[C@]1(C)O | 2 (≈ 2.44 µM)
CC[C@H]1OC(=O)[C@H](C)[C@@H](OC(=O)Cc2ccccn2)[C@H](C)[C@@H](O[C@@H]2O[C@H](C)C[C@H](N(C)C3CC3)[C@H]2O)[C@](C)(OC)C[C@@H](C)C(=O)[C@H](C)[C@@H](O)[C@]1(C)O | > 32
CC[C@H]1OC(=O)[C@H](C)[C@@H](OC(=O)Cc2ccccc2[N+](=O)[O-])[C@H](C)[C@@H](O[C@@H]2O[C@H](C)C[C@H](N(C)CC3CC3)[C@H]2O)[C@](C)(OC)C[C@@H](C)C(=O)[C@H](C)[C@@H](O)[C@]1(C)O | 1 (≈ 1.26 µM)
CC[C@H]1OC(=O)[C@H](C)[C@@H](OC(=O)Cc2ccncc2)[C@H](C)[C@@H](O[C@@H]2O[C@H](C)C[C@H](N(C)C3CC3)[C@H]2O)[C@](C)(OC)C[C@@H](C)C(=O)[C@H](C)[C@@H](O)[C@]1(C)O | > 32
CC[C@H]1OC(=O)[C@H](C)[C@@H](OC(=O)Cc2cccc([N+](=O)[O-])c2)[C@H](C)[C@@H](O[C@@H]2O[C@H](C)C[C@H](N(C)C3CC3)[C@H]2O)[C@](C)(OC)C[C@@H](C)C(=O)[C@H](C)[C@@H](O)[C@]1(C)O | 16 (≈ 20.5 µM)
C#CCN(C)[C@H]1C[C@@H](C)O[C@@H](O[C@@H]2[C@@H](C)[C@H](OC(=O)Cc3ccccc3[N+](=O)[O-])[C@@H](C)C(=O)O[C@H](CC)[C@@](C)(O)[C@H](O)[C@@H](C)C(=O)[C@H](C)C[C@@]2(C)OC)[C@@H]1O | 2 (≈ 2.57 µM)
CC[C@H]1OC(=O)[C@H](C)[C@@H](OC(=O)Cc2cccc(F)c2)[C@H](C)[C@@H](O[C@@H]2O[C@H](C)C[C@H](N(C)Cc3ccccc3)[C@H]2O)[C@](C)(OC)C[C@@H](C)C(=O)[C@H](C)[C@@H](O)[C@]1(C)O | 1 (≈ 1.25 µM)
CC[C@H]1OC(=O)[C@H](C)[C@@H](OC(=O)Cc2ccccc2F)[C@H](C)[C@@H](O[C@@H]2O[C@H](C)C[C@H](N(C)CC3CC3)[C@H]2O)[C@](C)(OC)C[C@@H](C)C(=O)[C@H](C)[C@@H](O)[C@]1(C)O | 8 (≈ 10.4 µM)
CC[C@H]1OC(=O)[C@H](C)[C@@H](OC(=O)Cc2ccc(F)cc2)[C@H](C)[C@@H](O[C@@H]2O[C@H](C)C[C@H](N(C)C3CC3)[C@H]2O)[C@](C)(OC)C[C@@H](C)C(=O)[C@H](C)[C@@H](O)[C@]1(C)O | 32 (≈ 42.6 µM)
CC[C@H]1OC(=O)[C@H](C)[C@@H](OC(=O)Cc2ccc([N+](=O)[O-])cc2)[C@H](C)[C@@H](O[C@@H]2O[C@H](C)C[C@H](N(C)CC3CC3)[C@H]2O)[C@](C)(OC)C[C@@H](C)C(=O)[C@H](C)[C@@H](O)[C@]1(C)O | 1 (≈ 1.26 µM)
CC[C@H]1OC(=O)[C@H](C)[C@@H](OC(=O)Cc2ccc([N+](=O)[O-])cc2)[C@H](C)[C@@H](O[C@@H]2O[C@H](C)C[C@H](N(C)C3CC3)[C@H]2O)[C@](C)(OC)C[C@@H](C)C(=O)[C@H](C)[C@@H](O)[C@]1(C)O | > 32
C#CCN(C)[C@H]1C[C@@H](C)O[C@@H](O[C@@H]2[C@@H](C)[C@H](OC(=O)Cc3cccc(F)c3)[C@@H](C)C(=O)O[C@H](CC)[C@@](C)(O)[C@H](O)[C@@H](C)C(=O)[C@H](C)C[C@@]2(C)OC)[C@@H]1O | 2 (≈ 2.67 µM)
CC[C@H]1OC(=O)[C@H](C)[C@@H](OC(=O)Cc2cccc(F)c2)[C@H](C)[C@@H](O[C@@H]2O[C@H](C)C[C@H](N(C)CC3CC3)[C@H]2O)[C@](C)(OC)C[C@@H](C)C(=O)[C@H](C)[C@@H](O)[C@]1(C)O | 8 (≈ 10.4 µM)
CC[C@H]1OC(=O)[C@H](C)[C@@H](OC(=O)Cc2ccccc2F)[C@H](C)[C@@H](O[C@@H]2O[C@H](C)C[C@H](N(C)C3CC3)[C@H]2O)[C@](C)(OC)C[C@@H](C)C(=O)[C@H](C)[C@@H](O)[C@]1(C)O | 16 (≈ 21.3 µM)
C#CCN(C)[C@H]1C[C@@H](C)O[C@@H](O[C@@H]2[C@@H](C)[C@H](OC(=O)Cc3ccccn3)[C@@H](C)C(=O)O[C@H](CC)[C@@](C)(O)[C@H](O)[C@@H](C)C(=O)[C@H](C)C[C@@]2(C)OC)[C@@H]1O | 4 (≈ 5.46 µM)
C#CCN(C)[C@H]1C[C@@H](C)O[C@@H](O[C@@H]2[C@@H](C)[C@H](OC(=O)Cc3cccc([N+](=O)[O-])c3)[C@@H](C)C(=O)O[C@H](CC)[C@@](C)(O)[C@H](O)[C@@H](C)C(=O)[C@H](C)C[C@@]2(C)OC)[C@@H]1O | 1 (≈ 1.29 µM)
CC[C@H]1OC(=O)[C@H](C)[C@@H](OC(=O)Cc2ccccn2)[C@H](C)[C@@H](O[C@@H]2O[C@H](C)C[C@H](N(C)CC3CC3)[C@H]2O)[C@](C)(OC)C[C@@H](C)C(=O)[C@H](C)[C@@H](O)[C@]1(C)O | > 16

Now those with a lower MIC, led by results:

MIC [µg/mL] | Compound
0.5 (≈ 0.652 µM) | CC[C@H]1OC(=O)[C@H](C)[C@@H](OC(=O)Cc2ccc([N+](=O)[O-])cc2)[C@H](C)[C@@H](O[C@@H]2O[C@H](C)C[C@H](N(C)CC)[C@H]2O)[C@](C)(OC)C[C@@H](C)C(=O)[C@H](C)[C@@H](O)[C@]1(C)O
0.5 (≈ 0.68 µM) | C=CCN(C)[C@H]1C[C@@H](C)O[C@@H](O[C@@H]2[C@@H](C)[C@H](OC(=O)Cc3ccncc3)[C@@H](C)C(=O)O[C@H](CC)[C@@](C)(O)[C@H](O)[C@@H](C)C(=O)[C@H](C)C[C@@]2(C)OC)[C@@H]1O
0.5 (≈ 0.676 µM) | CC[C@H]1OC(=O)[C@H](C)[C@@H](OC(=O)Cc2ccc(F)cc2)[C@H](C)[C@@H](O[C@@H]2O[C@H](C)C[C@H](N(C)CC)[C@H]2O)[C@](C)(OC)C[C@@H](C)C(=O)[C@H](C)[C@@H](O)[C@]1(C)O
0.5 (≈ 0.692 µM) | CC[C@H]1OC(=O)[C@H](C)[C@@H](OC(=O)Cc2cccnc2)[C@H](C)[C@@H](O[C@@H]2O[C@H](C)C[C@H](N(C)CC)[C@H]2O)[C@](C)(OC)C[C@@H](C)C(=O)[C@H](C)[C@@H](O)[C@]1(C)O
0.5 (≈ 0.667 µM) | C#CCN(C)[C@H]1C[C@@H](C)O[C@@H](O[C@@H]2[C@@H](C)[C@H](OC(=O)Cc3ccccc3F)[C@@H](C)C(=O)O[C@H](CC)[C@@](C)(O)[C@H](O)[C@@H](C)C(=O)[C@H](C)C[C@@]2(C)OC)[C@@H]1O
0.5 (≈ 0.665 µM) | C=CCN(C)[C@H]1C[C@@H](C)O[C@@H](O[C@@H]2[C@@H](C)[C@H](OC(=O)Cc3ccc(F)cc3)[C@@H](C)C(=O)O[C@H](CC)[C@@](C)(O)[C@H](O)[C@@H](C)C(=O)[C@H](C)C[C@@]2(C)OC)[C@@H]1O
0.5 (≈ 0.623 µM) | CC[C@H]1OC(=O)[C@H](C)[C@@H](OC(=O)Cc2ccccc2F)[C@H](C)[C@@H](O[C@@H]2O[C@H](C)C[C@H](N(C)Cc3ccccc3)[C@H]2O)[C@](C)(OC)C[C@@H](C)C(=O)[C@H](C)[C@@H](O)[C@]1(C)O
0.25 (≈ 0.326 µM) | CC[C@H]1OC(=O)[C@H](C)[C@@H](OC(=O)Cc2cccc([N+](=O)[O-])c2)[C@H](C)[C@@H](O[C@@H]2O[C@H](C)C[C@H](N(C)CC)[C@H]2O)[C@](C)(OC)C[C@@H](C)C(=O)[C@H](C)[C@@H](O)[C@]1(C)O
0.25 (≈ 0.318 µM) | CC[C@H]1OC(=O)[C@H](C)[C@@H](OC(=O)Cc2cccnc2)[C@H](C)[C@@H](O[C@@H]2O[C@H](C)C[C@H](N(C)Cc3ccccc3)[C@H]2O)[C@](C)(OC)C[C@@H](C)C(=O)[C@H](C)[C@@H](O)[C@]1(C)O
0.25 (≈ 0.34 µM) | C=CCN(C)[C@H]1C[C@@H](C)O[C@@H](O[C@@H]2[C@@H](C)[C@H](OC(=O)Cc3ccccn3)[C@@H](C)C(=O)O[C@H](CC)[C@@](C)(O)[C@H](O)[C@@H](C)C(=O)[C@H](C)C[C@@]2(C)OC)[C@@H]1O
0.25 (≈ 0.332 µM) | C=CCN(C)[C@H]1C[C@@H](C)O[C@@H](O[C@@H]2[C@@H](C)[C@H](OC(=O)Cc3ccccc3F)[C@@H](C)C(=O)O[C@H](CC)[C@@](C)(O)[C@H](O)[C@@H](C)C(=O)[C@H](C)C[C@@]2(C)OC)[C@@H]1O
0.25 (≈ 0.346 µM) | CC[C@H]1OC(=O)[C@H](C)[C@@H](OC(=O)Cc2ccccn2)[C@H](C)[C@@H](O[C@@H]2O[C@H](C)C[C@H](N(C)CC)[C@H]2O)[C@](C)(OC)C[C@@H](C)C(=O)[C@H](C)[C@@H](O)[C@]1(C)O
0.25 (≈ 0.338 µM) | CC[C@H]1OC(=O)[C@H](C)[C@@H](OC(=O)Cc2ccccc2F)[C@H](C)[C@@H](O[C@@H]2O[C@H](C)C[C@H](N(C)CC)[C@H]2O)[C@](C)(OC)C[C@@H](C)C(=O)[C@H](C)[C@@H](O)[C@]1(C)O
0.25 (≈ 0.321 µM) | C=CCN(C)[C@H]1C[C@@H](C)O[C@@H](O[C@@H]2[C@@H](C)[C@H](OC(=O)Cc3ccccc3[N+](=O)[O-])[C@@H](C)C(=O)O[C@H](CC)[C@@](C)(O)[C@H](O)[C@@H](C)C(=O)[C@H](C)C[C@@]2(C)OC)[C@@H]1O
0.25 (≈ 0.34 µM) | C=CCN(C)[C@H]1C[C@@H](C)O[C@@H](O[C@@H]2[C@@H](C)[C@H](OC(=O)Cc3cccnc3)[C@@H](C)C(=O)O[C@H](CC)[C@@](C)(O)[C@H](O)[C@@H](C)C(=O)[C@H](C)C[C@@]2(C)OC)[C@@H]1O
0.125 (≈ 0.169 µM) | CC[C@H]1OC(=O)[C@H](C)[C@@H](OC(=O)Cc2cccc(F)c2)[C@H](C)[C@@H](O[C@@H]2O[C@H](C)C[C@H](N(C)CC)[C@H]2O)[C@](C)(OC)C[C@@H](C)C(=O)[C@H](C)[C@@H](O)[C@]1(C)O
0.125 (≈ 0.166 µM) | C=CCN(C)[C@H]1C[C@@H](C)O[C@@H](O[C@@H]2[C@@H](C)[C@H](OC(=O)Cc3cccc(F)c3)[C@@H](C)C(=O)O[C@H](CC)[C@@](C)(O)[C@H](O)[C@@H](C)C(=O)[C@H](C)C[C@@]2(C)OC)[C@@H]1O
0.06 (≈ 0.077 µM) | C=CCN(C)[C@H]1C[C@@H](C)O[C@@H](O[C@@H]2[C@@H](C)[C@H](OC(=O)Cc3cccc([N+](=O)[O-])c3)[C@@H](C)C(=O)O[C@H](CC)[C@@](C)(O)[C@H](O)[C@@H](C)C(=O)[C@H](C)C[C@@]2(C)OC)[C@@H]1O

— ChEMBL document CHEMBL1933046, “Synthesis and antibacterial activity of a novel series of acylides active against community acquired respiratory pathogens” (2012)
